This is an account of results in paper PMC9945734 (BMC Medicine, 2023).

The conditions of data set [1]: by inhibiting RANKL-induced osteoclastogenesis; cited from earlier work.
Data set [2] deals with DU 145 (KLF5 null) cells expressing KLF5^K369Q. The data set is described as follows: CCK-8 cell viability assay. It counts as cell-based, human. The note with it: for cell number: DU 145-KQ. Here is the method: According to the manufacturer's instructions, cell viability was measured using a kit from Beyotime Biotechnology. Briefly, cells were seeded onto 96-well plates at 5 × 10^3 cells per well, incubated overnight, and then treated for 48 h with drugs at 0, 0.02, 0.05, 0.14, 0.41, 1.23, 3.7, 11.1, 33.3, and 100 μM. Four drugs were analyzed: furagin, nifuratel, nitazoxanide, and retapamulin. At the end of drug treatment, the medium was removed, the CCK-8 solution was added into each well at 100 μL/well and incubated for 1.5 h at 37°C, and the optical density (OD) was measured at 450 nm using a microplate reader (BioTek).
We also tested a wider range of NTZ concentrations in PC-3-KQ and DU 145-KQ cells using the CCK-8 assay by seeding 2 × 10^3 cells and 2.5 × 10^3 cells onto each well of 96-well plates. PC-3-KQ cells were treated with NTZ at 0, 0.01, 0.1, […], 2.5, and 5 μM, while DU 145-KQ cells were treated with NTZ at 0, 0.01, 0.1, 5, 10, and 20 μM for 0, 24, 48, and 72 h. The number of viable cells was determined using the CCK-8 solution as described above.

Data set [3] in a line: In vivo toxicity: body weight, adverse events, H&E of major organs. Also on record: species or system Balb/c nude mice. The note with it: 100 mg/kg intragastric every day.

Take `CC(=O)Oc1ccccc1C(=O)Nc1ncc([N+](=O)[O-])s1` [Nitazoxanide]: in data set [1], the “bone loss in ovariectomized mice” value is “reduces bone loss”. In addition, the cell number result is reported as “decreased cell number” in data set [2] (higher concentrations (up to 20 μM)) and “did not affect cell number” in data set [2] (lower concentrations (0–0.1 μM), 0 to 72 h). Moreover, half-maximal inhibition in data set [2] (Homo sapiens, DU 145 (KLF5 null), KLF5^K369Q, CCK-8, 48 h) (IC50) required 22.7 ± 2.3 µM. The “severe adverse events, mortality, histopathological changes in heart, lung, liver, spleen, kidney” value in data set [3] (prevention mode) is on record as “no mice in any NTZ-treated group had severe adverse events, mortality, or noticeable histopathological changes”. In addition, the body weight entry in data set [3] (prevention mode, after 5 weeks) is given as “did not show a noticeable change”. Also, the body weights result in data set [3] (therapy mode) is given as “not affected”.
